Results taken from the kinase profiling compilation of Christmann-Franck et al. (2016).

Legend:
Assay in all cases: radiometric filter-binding kinase assay, Kinaseprofiler
AURKC (human) = AURKC (human) (UniProt Q9UQB9); settings: ATP 15 µM
CAMK1 (human) = CAMK1 (human) (UniProt Q14012); settings: ATP 200 µM
CAMK2B (human) = CAMK2B (human) (UniProt Q13554); settings: ATP 15 µM
CHEK1 (human) = CHEK1 (human) (UniProt O14757); settings: ATP 90 µM
CHEK2 (human) = CHEK2 (human) (UniProt O96017); settings: ATP 70 µM
FGFR4 (human) = FGFR4 (human) (UniProt P22455); settings: ATP 155 µM
GRK5 (human) = GRK5 (human) (UniProt P34947); settings: ATP 15 µM
GSG2 (human) = GSG2 (human) (UniProt Q8TF76); settings: ATP 70 µM
INSRR (human) = INSRR (human) (UniProt P14616); settings: ATP 200 µM
KDR (human) = KDR (human) (UniProt P35968); settings: ATP 90 µM
MAP2K1 (human) = MAP2K1 (human) (UniProt Q02750); settings: ATP 10 µM
MAP2K1 (human), sequence (Q02750 whole entry, looked up): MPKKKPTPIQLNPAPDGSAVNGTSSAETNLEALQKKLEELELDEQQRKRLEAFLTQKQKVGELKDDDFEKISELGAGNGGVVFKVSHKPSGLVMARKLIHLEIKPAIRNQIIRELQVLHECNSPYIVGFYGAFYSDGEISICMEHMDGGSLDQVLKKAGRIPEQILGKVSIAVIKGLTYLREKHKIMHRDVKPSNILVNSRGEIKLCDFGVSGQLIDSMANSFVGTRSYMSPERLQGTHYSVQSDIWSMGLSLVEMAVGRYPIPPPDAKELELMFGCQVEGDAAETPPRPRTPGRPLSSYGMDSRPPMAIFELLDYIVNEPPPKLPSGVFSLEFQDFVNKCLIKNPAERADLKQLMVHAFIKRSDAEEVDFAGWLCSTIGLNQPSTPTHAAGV

MAP2K6 (human) = MAP2K6 (human) (UniProt P52564); settings: ATP 10 µM
MAP2K6 (human), sequence (P52564 whole entry, looked up): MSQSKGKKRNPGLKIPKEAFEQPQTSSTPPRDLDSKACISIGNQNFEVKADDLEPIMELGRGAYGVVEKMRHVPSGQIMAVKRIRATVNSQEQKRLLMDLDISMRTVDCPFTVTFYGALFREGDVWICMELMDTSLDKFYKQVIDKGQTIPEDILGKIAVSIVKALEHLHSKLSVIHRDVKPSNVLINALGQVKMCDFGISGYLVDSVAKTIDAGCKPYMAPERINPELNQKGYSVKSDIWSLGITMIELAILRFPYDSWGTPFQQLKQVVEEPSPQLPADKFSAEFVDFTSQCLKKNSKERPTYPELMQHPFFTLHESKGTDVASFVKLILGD

MAP3K7 (human) = MAP3K7 (human) (UniProt O43318); settings: ATP 45 µM
MAP3K9 (human) = MAP3K9 (human) (UniProt P80192); settings: ATP 45 µM
MELK (human) = MELK (human) (UniProt Q14680); settings: ATP 45 µM
MKNK2 (human) = MKNK2 (human) (UniProt Q9HBH9); settings: ATP 120 µM
NEK11 (human) = NEK11 (human) (UniProt Q8NG66); settings: ATP 200 µM
NEK11 (human), sequence (Q8NG66 whole entry, looked up): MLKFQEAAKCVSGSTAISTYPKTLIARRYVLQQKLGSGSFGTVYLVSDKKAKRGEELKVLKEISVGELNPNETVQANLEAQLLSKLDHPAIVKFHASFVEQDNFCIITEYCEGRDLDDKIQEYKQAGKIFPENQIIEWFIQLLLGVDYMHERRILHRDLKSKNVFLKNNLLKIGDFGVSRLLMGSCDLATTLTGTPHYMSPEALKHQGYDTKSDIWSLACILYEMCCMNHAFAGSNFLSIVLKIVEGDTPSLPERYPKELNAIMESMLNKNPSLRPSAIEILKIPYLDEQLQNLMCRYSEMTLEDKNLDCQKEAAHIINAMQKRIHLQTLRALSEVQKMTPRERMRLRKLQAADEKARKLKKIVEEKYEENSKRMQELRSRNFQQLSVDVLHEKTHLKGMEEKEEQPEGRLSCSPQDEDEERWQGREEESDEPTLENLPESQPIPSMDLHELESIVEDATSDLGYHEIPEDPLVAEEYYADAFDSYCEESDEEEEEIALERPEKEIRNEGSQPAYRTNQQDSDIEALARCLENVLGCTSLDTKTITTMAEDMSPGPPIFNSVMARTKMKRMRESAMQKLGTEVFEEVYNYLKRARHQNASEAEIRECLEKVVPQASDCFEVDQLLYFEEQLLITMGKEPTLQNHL

NEK3 (human) = NEK3 (human) (UniProt P51956); settings: ATP 120 µM
NEK3 (human), sequence (P51956 whole entry, looked up): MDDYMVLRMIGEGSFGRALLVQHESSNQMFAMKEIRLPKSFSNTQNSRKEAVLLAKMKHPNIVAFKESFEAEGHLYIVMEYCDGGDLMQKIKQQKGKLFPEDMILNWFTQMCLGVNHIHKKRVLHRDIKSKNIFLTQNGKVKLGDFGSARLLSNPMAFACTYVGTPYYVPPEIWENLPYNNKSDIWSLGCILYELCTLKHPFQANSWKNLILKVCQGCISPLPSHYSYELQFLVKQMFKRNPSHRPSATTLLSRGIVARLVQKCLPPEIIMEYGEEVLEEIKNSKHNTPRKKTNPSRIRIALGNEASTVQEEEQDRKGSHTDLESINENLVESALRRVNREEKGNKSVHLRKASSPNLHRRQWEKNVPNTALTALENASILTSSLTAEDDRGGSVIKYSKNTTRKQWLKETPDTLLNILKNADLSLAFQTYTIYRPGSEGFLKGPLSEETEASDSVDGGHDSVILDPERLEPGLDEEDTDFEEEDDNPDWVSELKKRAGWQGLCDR

NLK (human) = NLK (human) (UniProt Q9UBE8); settings: ATP 200 µM
PDGFRA (human) = PDGFRA (human) (UniProt P16234); settings: ATP 120 µM
[1] = biological target: PRKAA2 PRKAB1 PRKAG1 (human) (UniProt P54619+P54646+Q9Y478); settings: ATP 45 µM
PRKCB2 (human) = PRKCB2 (human) (UniProt P05771); settings: ATP 10 µM
PRKCE (human) = PRKCE (human) (UniProt Q02156); settings: ATP 45 µM
PRKCE (human), sequence (Q02156 whole entry, looked up): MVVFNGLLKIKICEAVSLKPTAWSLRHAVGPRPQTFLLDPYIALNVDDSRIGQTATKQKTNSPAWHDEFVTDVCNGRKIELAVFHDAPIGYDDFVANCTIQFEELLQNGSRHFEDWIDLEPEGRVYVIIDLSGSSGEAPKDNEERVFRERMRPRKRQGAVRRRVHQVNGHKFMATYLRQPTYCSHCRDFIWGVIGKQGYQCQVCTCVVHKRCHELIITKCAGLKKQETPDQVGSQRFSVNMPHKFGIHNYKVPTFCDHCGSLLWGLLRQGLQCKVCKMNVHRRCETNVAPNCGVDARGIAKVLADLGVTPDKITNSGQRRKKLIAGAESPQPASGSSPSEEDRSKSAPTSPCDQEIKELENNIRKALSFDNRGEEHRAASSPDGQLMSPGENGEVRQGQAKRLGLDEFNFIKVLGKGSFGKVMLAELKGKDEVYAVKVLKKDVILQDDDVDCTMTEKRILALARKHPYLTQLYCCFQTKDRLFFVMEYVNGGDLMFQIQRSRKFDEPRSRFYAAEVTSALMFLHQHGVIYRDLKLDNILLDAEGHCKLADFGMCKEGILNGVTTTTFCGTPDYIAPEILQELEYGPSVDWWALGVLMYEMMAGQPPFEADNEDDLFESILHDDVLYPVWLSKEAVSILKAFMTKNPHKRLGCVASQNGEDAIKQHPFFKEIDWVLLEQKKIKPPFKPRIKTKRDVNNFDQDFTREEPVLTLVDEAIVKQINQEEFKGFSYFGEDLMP

PRKCG (human) = PRKCG (human) (UniProt P05129); settings: ATP 15 µM
ROCK1 (human) = ROCK1 (human) (UniProt Q13464); settings: ATP 70 µM
ROCK1 (human), sequence (Q13464 whole entry, looked up): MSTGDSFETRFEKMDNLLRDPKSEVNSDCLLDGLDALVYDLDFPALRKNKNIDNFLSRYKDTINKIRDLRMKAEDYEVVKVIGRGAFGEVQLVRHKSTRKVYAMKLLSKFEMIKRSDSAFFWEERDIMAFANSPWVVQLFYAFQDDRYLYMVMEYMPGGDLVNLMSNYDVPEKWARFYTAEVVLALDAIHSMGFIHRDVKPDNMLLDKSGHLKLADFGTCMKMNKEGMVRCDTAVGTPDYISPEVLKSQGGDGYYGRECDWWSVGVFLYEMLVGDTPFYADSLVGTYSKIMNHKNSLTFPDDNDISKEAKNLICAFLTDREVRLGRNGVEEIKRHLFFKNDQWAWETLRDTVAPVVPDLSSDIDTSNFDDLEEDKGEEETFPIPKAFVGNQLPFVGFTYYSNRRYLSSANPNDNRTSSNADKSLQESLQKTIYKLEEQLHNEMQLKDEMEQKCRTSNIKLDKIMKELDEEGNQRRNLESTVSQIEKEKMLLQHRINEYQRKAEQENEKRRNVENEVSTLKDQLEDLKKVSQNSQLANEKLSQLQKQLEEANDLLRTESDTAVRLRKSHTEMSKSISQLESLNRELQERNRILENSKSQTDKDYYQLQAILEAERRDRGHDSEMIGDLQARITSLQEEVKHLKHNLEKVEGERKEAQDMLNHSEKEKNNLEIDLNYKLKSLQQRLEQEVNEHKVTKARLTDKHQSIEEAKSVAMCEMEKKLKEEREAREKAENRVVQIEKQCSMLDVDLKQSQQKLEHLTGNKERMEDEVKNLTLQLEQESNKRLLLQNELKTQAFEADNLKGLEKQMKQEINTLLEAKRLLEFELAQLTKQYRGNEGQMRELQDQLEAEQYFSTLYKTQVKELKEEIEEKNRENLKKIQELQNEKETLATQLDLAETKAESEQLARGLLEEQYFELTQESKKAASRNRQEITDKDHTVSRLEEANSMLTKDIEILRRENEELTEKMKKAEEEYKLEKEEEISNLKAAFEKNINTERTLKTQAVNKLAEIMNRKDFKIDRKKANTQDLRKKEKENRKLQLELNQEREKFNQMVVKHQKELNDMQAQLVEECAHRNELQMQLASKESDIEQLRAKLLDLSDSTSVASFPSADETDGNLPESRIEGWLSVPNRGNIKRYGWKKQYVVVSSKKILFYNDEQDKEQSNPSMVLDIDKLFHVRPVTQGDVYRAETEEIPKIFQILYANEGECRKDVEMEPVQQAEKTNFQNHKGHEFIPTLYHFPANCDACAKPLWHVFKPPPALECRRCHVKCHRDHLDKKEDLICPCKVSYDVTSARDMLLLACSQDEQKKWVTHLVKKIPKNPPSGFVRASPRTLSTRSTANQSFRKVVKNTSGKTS

RPS6KA2 KD1 KD2 (human) = RPS6KA2 KD1 KD2 (human) (UniProt Q15349); settings: ATP 10 µM
RPS6KA3 KD1 KD2 (human) = RPS6KA3 KD1 KD2 (human) (UniProt P51812); settings: ATP 10 µM
RPS6KA3 KD1 KD2 (human), sequence (P51812 whole entry, looked up): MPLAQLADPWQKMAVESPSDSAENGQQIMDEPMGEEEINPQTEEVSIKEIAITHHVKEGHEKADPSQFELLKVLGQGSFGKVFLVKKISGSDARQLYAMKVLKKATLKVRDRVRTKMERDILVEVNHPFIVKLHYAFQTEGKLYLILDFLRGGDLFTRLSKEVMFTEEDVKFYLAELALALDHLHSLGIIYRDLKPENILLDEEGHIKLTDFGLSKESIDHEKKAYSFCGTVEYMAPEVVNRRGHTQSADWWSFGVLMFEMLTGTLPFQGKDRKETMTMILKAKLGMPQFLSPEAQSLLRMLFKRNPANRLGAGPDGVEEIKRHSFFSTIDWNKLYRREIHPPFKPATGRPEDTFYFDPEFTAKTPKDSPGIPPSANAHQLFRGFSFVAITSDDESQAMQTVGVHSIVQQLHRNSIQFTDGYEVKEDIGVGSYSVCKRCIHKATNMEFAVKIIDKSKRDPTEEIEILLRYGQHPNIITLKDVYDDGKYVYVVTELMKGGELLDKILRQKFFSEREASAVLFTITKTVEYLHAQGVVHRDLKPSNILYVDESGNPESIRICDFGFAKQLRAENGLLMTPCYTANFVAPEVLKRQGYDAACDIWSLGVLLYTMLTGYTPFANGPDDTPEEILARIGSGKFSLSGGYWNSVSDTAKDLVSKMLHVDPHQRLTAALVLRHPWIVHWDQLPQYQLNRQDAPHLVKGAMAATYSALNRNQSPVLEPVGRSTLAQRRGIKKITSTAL

RPS6KA5 KD1 KD2 (human) = RPS6KA5 KD1 KD2 (human) (UniProt O75582); settings: ATP 90 µM
RPS6KA6 KD1 KD2 (human) = RPS6KA6 KD1 KD2 (human) (UniProt Q9UK32); settings: ATP 45 µM
STK11 (human) = STK11 (human) (UniProt Q15831); settings: ATP 155 µM
TAOK1 (human) = TAOK1 (human) (UniProt Q7L7X3); settings: ATP 10 µM
WNK3 (human) = WNK3 (human) (UniProt Q9BYP7); settings: ATP 200 µM

AURKC (human), sequence (Q9UQB9 whole entry, looked up): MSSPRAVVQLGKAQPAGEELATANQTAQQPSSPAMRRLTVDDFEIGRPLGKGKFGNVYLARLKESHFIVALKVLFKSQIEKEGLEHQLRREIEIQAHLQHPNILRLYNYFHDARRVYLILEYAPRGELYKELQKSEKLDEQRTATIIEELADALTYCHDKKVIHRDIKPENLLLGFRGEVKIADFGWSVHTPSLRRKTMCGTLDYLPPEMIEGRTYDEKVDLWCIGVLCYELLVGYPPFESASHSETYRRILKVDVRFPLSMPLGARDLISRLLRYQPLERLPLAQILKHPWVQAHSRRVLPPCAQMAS

residual activity (AURKC (human); compound 1.0 µM): 61%
residual activity (AURKC (human); compound 10.0 µM): 49%
residual activity (CAMK1 (human); compound 1.0 µM): 72%
residual activity (CAMK1 (human); compound 10.0 µM): 21%
residual activity (CAMK2B (human); compound 1.0 µM): 33%
residual activity (CAMK2B (human); compound 10.0 µM): 11%
residual activity (CHEK1 (human); compound 1.0 µM): 65%
residual activity (CHEK1 (human); compound 10.0 µM): 30%
residual activity (CHEK2 (human); compound 1.0 µM): 13%
residual activity (CHEK2 (human); compound 10.0 µM): 2%
residual activity (FGFR4 (human); compound 1.0 µM): 100%
residual activity (FGFR4 (human); compound 10.0 µM): 45%
residual activity (GRK5 (human); compound 1.0 µM): 92%
residual activity (GRK5 (human); compound 10.0 µM): 58%
residual activity (GSG2 (human); compound 1.0 µM): 26%
residual activity (GSG2 (human); compound 10.0 µM): 19%
residual activity (INSRR (human); compound 1.0 µM): 2%
residual activity (INSRR (human); compound 10.0 µM): 1%
residual activity (KDR (human); compound 1.0 µM): 4%
residual activity (KDR (human); compound 10.0 µM): 1%
residual activity (MAP2K1 (human); compound 1.0 µM): 64%
residual activity (MAP2K1 (human); compound 10.0 µM): 55%
residual activity (MAP2K6 (human); compound 1.0 µM): 63%
residual activity (MAP2K6 (human); compound 10.0 µM): 40%
residual activity (MAP3K7 (human); compound 1.0 µM): 64%
residual activity (MAP3K7 (human); compound 10.0 µM): 71%
residual activity (MAP3K9 (human); compound 1.0 µM): 6%
residual activity (MAP3K9 (human); compound 10.0 µM): 1%
residual activity (MELK (human); compound 1.0 µM): 15%
residual activity (MELK (human); compound 10.0 µM): 7%
residual activity (MKNK2 (human); compound 1.0 µM): 62%
residual activity (MKNK2 (human); compound 10.0 µM): 18%
residual activity (NEK11 (human); compound 1.0 µM): 70%
residual activity (NEK11 (human); compound 10.0 µM): 18%
residual activity (NEK3 (human); compound 1.0 µM): 86%
residual activity (NEK3 (human); compound 10.0 µM): 94%
residual activity (NLK (human); compound 1.0 µM): 82%
residual activity (NLK (human); compound 10.0 µM): 67%
residual activity (PDGFRA (human); compound 1.0 µM): 87%
residual activity (PDGFRA (human); compound 10.0 µM): 37%
residual activity ([1]; compound 1.0 µM): 1%
residual activity ([1]; compound 10.0 µM): 3%
residual activity (PRKCB2 (human); compound 1.0 µM): 95%
residual activity (PRKCB2 (human); compound 10.0 µM): 102%
residual activity (PRKCE (human); compound 1.0 µM): 106%
residual activity (PRKCE (human); compound 10.0 µM): 91%
residual activity (PRKCG (human); compound 1.0 µM): 92%
residual activity (PRKCG (human); compound 10.0 µM): 73%
residual activity (ROCK1 (human); compound 1.0 µM): 108%
residual activity (ROCK1 (human); compound 10.0 µM): 92%
residual activity (RPS6KA2 KD1 KD2 (human); compound 1.0 µM): 19%
residual activity (RPS6KA2 KD1 KD2 (human); compound 10.0 µM): 4%
residual activity (RPS6KA3 KD1 KD2 (human); compound 1.0 µM): 50%
residual activity (RPS6KA3 KD1 KD2 (human); compound 10.0 µM): 7%
residual activity (RPS6KA5 KD1 KD2 (human); compound 1.0 µM): 61%
residual activity (RPS6KA5 KD1 KD2 (human); compound 10.0 µM): 21%
residual activity (RPS6KA6 KD1 KD2 (human); compound 1.0 µM): 20%
residual activity (RPS6KA6 KD1 KD2 (human); compound 10.0 µM): 12%
residual activity (STK11 (human); compound 1.0 µM): 83%
residual activity (STK11 (human); compound 10.0 µM): 44%
residual activity (TAOK1 (human); compound 1.0 µM): 83%
residual activity (TAOK1 (human); compound 10.0 µM): 39%
residual activity (WNK3 (human); compound 1.0 µM): 89%
residual activity (WNK3 (human); compound 10.0 µM): 60%
SMILES: O=C1Nc2ccccc2/C1=C1\Nc2ccccc2\C1=N/O
